Data taken from patent publication US20090306150A1, “CARBOXYLIC ACID SALTS OF 2-AMINO-3-CARBETHOXYAMINO-6-(4-FLUORO-BENZYLAMINO)-PYRIDINE” (AWD. PHARMA GMBH & CO. KG, priority 2008, published 2009).

How the values were obtained:
Type in all cases: physicochemical
[1] = Crystal shape of flupirtine salts (light microscope photomicrographs)
From the text: As referred to herein, the “aspect ratio” denotes the ratio of the second largest dimension of a crystal particle (i.e. its width) to the largest dimension of the crystal particle (i.e. its length). The aspect ratio may be determined from a representative number of crystals by visual observation under a light microscope. The photomicrographs were obtained by gently exerting pressure on the sample material with a mortar and pistil, transferring the sample material to a microscope slide and covering it with immersion oil, followed by observation and image recording on an Optech Biostar microscope equipped with a polarisation filter. The magnification was 200, i.e. at a width of the photomicrograph of 14 cm, 1 cm of said photograph corresponds to about 0.06 mm.

[2] = Determining the bulk density of flupirtine salts; settings: volume per 100.0 g of sample material, about 4 g in 10 ml measuring cylinder, not compacted
Procedure: The bulk density was determined as follows: Without increasing its density, sample material (about 4 grams) was introduced into a 10 ml measuring cylinder (±0.2 ml). The volume and the exact weight of the introduced sample material were determined. The bulk density was calculated as volume per 100.0 g of sample material.

[3] = Storage stability of flupirtine salts (HPLC); settings: for Decrease of the area under the peak of the flupirtine signal: 0 to 14 days of storage at room temperature under normal air; for Flupirtine signal after 14 days (area under the peak in %): HPLC after 14 days of storage at room temperature under normal air, about 21% oxygen; for Flupirtine signal after 0 days (area under the peak in %): HPLC after preparation of the salts
Procedure: [table] HPLC was performed after preparation of the salts and repeated after 14 days of storage at room temperature under normal air containing about 21% oxygen.

[4] = Dissolution profiles of flupirtine acid addition salts in ethanol (compacted substance); settings: 100 mg compacted, 1000 ml ethanol, 37° C., basket 50 UpM
Procedure: The dissolution in Ethanol was measured using compacted substance.
100 mg substance was compacted using a hydraulic press. Diameter of cake: 8.9 mm; pressure 20 kp/cm^2 for 15 sec. Liberation parameter:
Basket, 50 UpM, 1000 ml medium 37° C. Apparatus: DT6R Dissolution Tester (ERWEKA).
At given time points 5.0 ml solution were taken and measured vs. reference at 244 nm at a spectral photometer. The solution was refilled with 5 ml solvent. The amount of liberated substance at given time points was calculated using a response factor (absorption/mg substance). Measuring error: 10%.

[5] = Stability towards oxidation and discoloration when exposed to air; settings: storage period of 30 days at room temperature, in contrast to maleate and gluconate
From the text: Discoloration can take takes place after prolonged storage or when exposed to air. Discoloration is regarded as leading to an active pharmaceutical ingredient (API) of low pharmaceutical quality and can be avoided by using a protective atmosphere in the production process and using expensive packaging materials for the finished drug forms. The discoloration effect is known for flupirtine hydrochloride, flupiritine gluconate and both polymorphs of flupirtine maleate.

[6] = Dissolution profiles of flupirtine acid addition salts in ethanol (compacted substance); settings: after 10 min stirring in ethanol

| Structure (SMILES) | Crystal shape [1] | Bulk density (ml/100 g substance) [2] | Decrease of the area under the peak of the flupirtine signal [3] | Flupirtine signal after 14 days (area under the peak in %) [3] | Flupirtine signal after 0 days (area under the peak in %) [3] | Amount of substance dissolved ([4]; 5 min) | Amount of substance dissolved ([4]; 10 min) | Amount of substance dissolved ([4]; 15 min) | Amount of substance dissolved ([4]; 20 min) | Amount of substance dissolved ([4]; 25 min) | Amount of substance dissolved ([4]; 30 min) | Amount of substance dissolved ([4]; 60.25 min) | Stability towards oxidation and towards discoloration [5] | Dissolution in ethanol (in words) [6] |
| --- | --- | --- | --- | --- | --- | --- | --- | --- | --- | --- | --- | --- | --- | --- |
| CCOC(=O)Nc1ccc(NCc2ccc(F)cc2)nc1N.O=C(O)/C=C\C(=O)O [Flupirtine maleate A, Flupirtine Maleate Form A, reference compound] | Fine needles | 686 ml/100 g substance | 3.11% | 96.18% | 99.27% | 2.1 mg | 4.1 mg | 6.5 mg | 9.5 mg | 11.7 mg | 14.3 mg | 24.2 mg |  |  |
| CC(=O)O.CCOC(=O)Nc1ccc(NCc2ccc(F)cc2)nc1N [Flupirtine acetate, 2-amino-3-carbethoxyamino-6-(4-fluoro-benzylamino)-pyridine acetate] | Hexagons and polygonal plates | 330 ml/100 g substance | 0.9% | 98.64% | 99.54% | 50.3 mg | 108.3 mg | 103.0 mg | 95.8 mg | 96.2 mg | 108.3 mg | 99.7 mg | substantially improved stability |  |
| CCOC(=O)Nc1ccc(NCc2ccc(F)cc2)nc1N [Flupirtine propionate, 2-amino-3-carbethoxyamino-6-(4-fluoro-benzylamino)-pyridine propionate] | Hexagons and polygonal plates | 306 ml/100 g substance |  |  |  | 110.0 mg | 109.4 mg | 110.3 mg | 107.4 mg | 109.6 mg | 110.9 mg | 112.2 mg | substantially improved stability | completely dissolved |
| CCOC(=O)Nc1ccc(NCc2ccc(F)cc2)nc1N.O=C(O)/C=C\C(=O)O [Flupirtine maleate B, Flupirtine Maleate Form B, reference compound] | Very fine needles | 1634 ml/100 g substance | 3.22% | 95.92% | 99.12% | 4.2 mg | 6.3 mg | 12.1 mg | 16.5 mg | 21.3 mg | 27.4 mg | 69.5 mg |  |  |
| CCOC(=O)Nc1ccc(NCc2ccc(F)cc2)nc1N.O=C(O)C(F)(F)F [Flupirtine triflutate, Flupirtine Triflutate] |  |  |  |  |  | 98.5 mg | 115.1 mg | 108.0 mg | 107.7 mg |  |  |  |  | completely dissolved |
